Measurements reported in US7994185B2, “Benzene sulfonamide thiazole and oxazole compounds” (Glaxo Smith Kline LLC, priority 2008, dated 2011).
Like-named read-outs stand apart in the source and are kept apart here.

Tests used:
[1] = test system: Human melanoma cancer cells (SK-MEL-28); test: Cell growth inhibition assay (CellTiter-Glo), SK-MEL-28; format: cell-based
[2] = target: T1, BRAFV600E full-length (amino acids 2-766) (Homo sapiens, UniProt P15056, V600E); test: B-Raf Accelerated MEK ATPase assay (BRAMA); format: biochemical; conditions: categorized
T1 construct: His6-tagged BRAFV600E full-length (amino acids 2-766); His6; made in house; host or cells: baculovirus expression system (insect cells)
T1 sequence (P15056 2-766 V600E): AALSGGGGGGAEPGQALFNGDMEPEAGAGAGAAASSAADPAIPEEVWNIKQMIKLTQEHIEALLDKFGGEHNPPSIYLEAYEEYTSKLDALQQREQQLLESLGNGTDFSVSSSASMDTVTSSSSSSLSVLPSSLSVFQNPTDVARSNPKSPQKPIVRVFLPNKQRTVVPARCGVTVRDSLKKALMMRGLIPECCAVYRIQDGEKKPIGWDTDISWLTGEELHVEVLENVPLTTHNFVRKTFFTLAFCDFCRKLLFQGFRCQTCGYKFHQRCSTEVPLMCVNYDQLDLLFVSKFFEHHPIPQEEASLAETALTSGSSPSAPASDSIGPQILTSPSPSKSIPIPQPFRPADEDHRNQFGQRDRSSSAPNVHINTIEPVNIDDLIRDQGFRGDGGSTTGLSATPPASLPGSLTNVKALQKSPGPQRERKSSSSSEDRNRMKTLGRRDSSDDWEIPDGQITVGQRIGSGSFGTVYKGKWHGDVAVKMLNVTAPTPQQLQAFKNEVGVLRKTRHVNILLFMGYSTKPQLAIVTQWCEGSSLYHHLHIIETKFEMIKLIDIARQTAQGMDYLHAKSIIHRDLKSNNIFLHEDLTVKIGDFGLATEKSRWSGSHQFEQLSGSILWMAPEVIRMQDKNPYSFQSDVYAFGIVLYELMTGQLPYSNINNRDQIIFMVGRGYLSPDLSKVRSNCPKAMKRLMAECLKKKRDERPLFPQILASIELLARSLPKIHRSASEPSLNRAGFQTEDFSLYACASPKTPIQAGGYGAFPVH
Outline: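 Coupled-enzyme readout: ADP generated by MEK-mediated ATP hydrolysis, uncoupled from ERK phosphorylation, is linked to NADH oxidation through pyruvate kinase and lactate dehydrogenase.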

[3] = test system: Human colon tumor cells (Colo205); test: Cell growth inhibition assay (CellTiter-Glo), Colo205; format: cell-based
Experimental: Human colon tumor cells (Colo205) were cultured in RPMI (Mediatech 50-020-PB) containing 10% FBS and 1% penicillin-streptomycin.
The next day, compounds were diluted as follow: For 96-well assays, 13.5 μL of compound in DMSO were diluted using nine (9) serial 1:3 dilutions of 4.5 μL in 9 μL of DMSO. Medium (270 μL/well of RPMI with 10% FBS and 1% penicillin-streptomycin) was added to the plates. Aliquots (7 μL) were added to cells in the final assay giving a final DMSO concentration of 0.2%. For 384-well assays, 15 μL of compound in DMSO were diluted using nine (9) serial 1:3 dilutions of 5 μL in 10 μL of DMSO, followed by a further dilution of 5 μL of compound with 95 μL of medium, of which 2 μL were added to cells in the final assay giving a final DMSO concentration of 0.2%. Cells were incubated at 37° C., 5% CO2 for 3 days.
Total ATP was measured (as a surrogate estimate of cell number) using CellTiter-Glo® reagent (Promega G7571). Briefly, plates were removed from the incubator and allowed to equilibrate to room temperature for 30 minutes. CellTiter-Glo® (25 μL or 55 μL for 384-well or 96-well assays, respectively) reagent was added to each well and plates were shaken on an orbital plate shaker for 2 minutes. Plates were incubated without shaking for a further 30 minutes and read on an LJL Analyst GT reader in luminometer mode with an integration time of 0.5 seconds per well. Percent inhibition of cell growth was calculated relative to DMSO vehicle-treated control wells.

[4] = SK-MEL-28, 72 h, Table 3a, 3 days incubation, read-out: Activity in SK-MEL-28 Tumor Cells
[5] = SK-MEL-28, Table 3b, later runs, average for the one or more runs, categorized, read-out: IC50 for SK-MEL-28
[6] = B-Raf Activity, Table 1a, highest pIC50 for the one or more runs
[7] = B-Raf pIC50, Table 1b, later runs, average pIC50 for the one or more runs
[8] = COLO 205, 72 h, Table 2a, 3 days incubation, read-out: Activity in Colo205 Tumor Cells
[9] = COLO 205, Table 2b, later runs, average for the one or more runs, categorized, read-out: IC50 for Colo205
[10] = Table 1b, later runs, average pIC50 for the one or more runs, read-out: B-Raf pIC50 (converted)

| Compound | IC50 [1, 4] [nM] | IC50 [1, 5] [nM] | IC50 [2, 6] [nM] | IC50 [2, 7] [nM] | IC50 [3, 8] [nM] | IC50 [3, 9] [nM] | IC50 [2, 10] [nM] |
| --- | --- | --- | --- | --- | --- | --- | --- |
| CC(C)(C)c1nc(-c2cccc(NS(=O)(=O)c3cc(F)ccc3F)c2F)c(-c2ccnc(CCS(C)(=O)=O)n2)s1 [Example 214] | < 100 | < 100 | < 100 | ≤ 3.16 | < 100 | < 100 | – |
| Cc1nccc(-c2sc(C(C)(C)C)nc2-c2cccc(NS(=O)(=O)c3ccco3)c2Cl)n1 [Example 263, N-{2-chloro-3-[2-(1,1-dimethylethyl)-5-(2-methyl-4-pyrimidinyl)-1,3-thiazol-4-yl]phenyl}-2-furansulfonamide] | – | 100 to 1000 | – | ≤ 3.16 | – | 100 to 1000 | – |
| CC(C)c1nc(-c2ccc(F)c(NS(=O)(=O)c3cc(F)ccc3F)c2)c(-c2ccnc(NCCCS(C)(=O)=O)n2)s1 [Example 204] | < 100 | < 100 | < 100 | – | < 100 | < 100 | 3.16 to 31.6 |
| CC(C)(C)c1nc(-c2cccc(NS(=O)(=O)c3cc(F)ccc3F)c2F)c(-c2ccnc(NCCF)n2)s1 [Example 179] | < 100 | < 100 | < 100 | ≤ 3.16 | < 100 | < 100 | – |
| Nc1nccc(-c2sc(C3CCC3)nc2-c2cccc(NS(=O)(=O)c3cc(F)ccc3F)c2F)n1 [Example 117] | < 100 | < 100 | < 100 | ≤ 3.16 | < 100 | < 100 | – |
| Nc1nccc(-c2sc(N3CCOCC3)nc2-c2cccc(NS(=O)(=O)c3ccoc3)c2F)n1 [Example 267, N-{3-[5-(2-amino-4-pyrimidinyl)-2-(4-morpholinyl)-1,3-thiazol-4-yl]-2-fluorophenyl}-3-furansulfonamide] | – | 100 to 1000 | – | ≤ 3.16 | – | 100 to 1000 | – |
| CC(C)Nc1nccc(-c2sc(C(C)C)nc2-c2cccc(NS(=O)(=O)c3cccc(F)c3)c2)n1 [Example 158] | > 1000 | 1000 to 10000 | < 100 | 31.6 to 1000 | > 1000 | 1000 to 10000 | – |
| COc1c(NS(=O)(=O)c2c(F)cccc2F)cccc1-c1nc(C(C)C)sc1-c1ccnc(NCC(C)C)n1 [Example 44, 2,6-Difluoro-N-[3-(2-(1-methylethyl)-5-{2-[(2-methylpropyl)amino]-4-pyrimidinyl}-1,3-thiazol-4-yl)-2-(methyloxy)phenyl]benzenesulfonamide] | > 1000 | 1000 to 10000 | < 100 | – | > 1000 | 1000 to 10000 | 3.16 to 31.6 |
| Cc1nccc(-c2sc(C3CCOCC3)nc2-c2cccc(NS(=O)(=O)c3cc(F)ccc3F)c2F)n1 [Example 246, 2,5-difluoro-N-{2-fluoro-3-[5-(2-methyl-4-pyrimidinyl)-2-(tetrahydro-2H-pyran-4-yl)-1,3-thiazol-4-yl]phenyl}benzenesulfonamide] | – | < 100 | – | – | – | < 100 | 3.16 to 31.6 |
| Cc1nccc(-c2sc(C(C)(C)C)nc2-c2cccc(NS(=O)(=O)c3ccccc3F)c2F)n1 [Example 225, N-{3-[2-(1,1-dimethylethyl)-5-(2-methyl-4-pyrimidinyl)-1,3-thiazol-4-yl]-2-fluorophenyl}-2-fluorobenzenesulfonamide] | – | < 100 | – | – | – | < 100 | 3.16 to 31.6 |
| Cc1nccc(-c2sc(N3CCOCC3)nc2-c2cccc(NS(=O)(=O)c3ccoc3)c2F)n1 [Example 272, N-{2-fluoro-3-[5-(2-methyl-4-pyrimidinyl)-2-(4-morpholinyl)-1,3-thiazol-4-yl]phenyl}-3-furansulfonamide] | – | < 100 | – | – | – | 100 to 1000 | 3.16 to 31.6 |
| CS(=O)(=O)N1CCN(c2nc(-c3cccc(NS(=O)(=O)c4c(F)cccc4F)c3F)c(-c3ccnc(N)n3)s2)CC1 [Example 100, N-(3-{5-(2-Amino-4-pyrimidinyl)-2-[4-(methylsulfonyl)-1-piperazinyl]-1,3-thiazol-4-yl}-2-fluorophenyl)-2,6-difluorobenzenesulfonamide] | 100 to 1000 | 100 to 1000 | < 100 | – | 100 to 1000 | 100 to 1000 | 3.16 to 31.6 |
